Reference: ChEMBL document CHEMBL1777668, “Structure-activity relationship of cyclic thiacarbocyanine tau aggregation inhibitors” (Bioorg Med Chem Lett, 2011)
Active and inactive are the calls of the source. No cut-off for these calls is given here.

How the values were obtained:
Homo sapiens [1] = species: Homo sapiens; experiment: Inhibition of octadecyl sulfate-induced recombinant human tau 2N4R aggregation at 10 uM by electron microscopy
Homo sapiens [2] = species: Homo sapiens; experiment: Inhibition of octadecyl sulfate-induced recombinant human tau 2N4R aggregation at 1 uM by electron microscopy

| inhibition (Homo sapiens [1]) | inhibition (Homo sapiens [2]) | SMILES |
| --- | --- | --- |
| Active |  | C1=C2\Sc3ccccc3N2CCCCC[n+]2c(sc3ccccc32)/C=C/C=C2\Sc3ccccc3N2CCCCC[n+]2c(sc3ccccc32)/C=C/1 |
| Active |  | C1=C2\Sc3ccccc3N2CCCCCCCC[n+]2c(sc3ccccc32)/C=C/C=C2\Sc3ccccc3N2CCCCCCCC[n+]2c(sc3ccccc32)/C=C/1 |
| Active |  | C1=C2\Sc3ccccc3N2CCCCCCC[n+]2c(sc3ccccc32)/C=C/C=C2\Sc3ccccc3N2CCCCCCC[n+]2c(sc3ccccc32)/C=C/1 |
| Active | inactive | C1=C2\Sc3ccccc3N2CCC[n+]2c(sc3ccccc32)/C=C/C=C2\Sc3ccccc3N2CCC[n+]2c(sc3ccccc32)/C=C/1 |
| Active | Active | C1=C2\Sc3ccccc3N2CCCC[n+]2c(sc3ccccc32)/C=C/C=C2\Sc3ccccc3N2CCCC[n+]2c(sc3ccccc32)/C=C/1 |
| Active |  | C1=C2\Sc3ccccc3N2CCCCCC[n+]2c(sc3ccccc32)/C=C/C=C2\Sc3ccccc3N2CCCCCC[n+]2c(sc3ccccc32)/C=C/1 |
